# “And” between values parts separate entries of the source, which are not always exact repeats. Identical values can stand only once. Like-named read-outs stand apart in the source and are kept apart here.
# Tests used:
# [1] = Phase I ascending single oral dose study, pharmacokinetics; type: in vivo, healthy volunteers (human); conditions: for half-life / Tmax / CL renal / AUC(0-inf) / AUC(0-t) / Cmax: male, human; for half-life / Tmax / AUC(0-inf) / AUC(0-t) / Cmax: plasma; for CL renal / Ae, cumulative percentage of DGJ excreted over the 12-hour postdose period: urine; for AUC(0-inf) / AUC(0-t) / Cmax: geometric mean
# Experimental: This example describes a randomized, double blind, placebo controlled Phase I study of ascending single oral dose of DGJ to evaluate the safety, tolerability and pharmacokinetics of DGJ in healthy volunteers.
# Study Design and Duration. […] Dose escalation to the next dose level (i.e., next group) proceeded following review of safety and tolerability of the previous group(s). Subjects were housed in the treatment facility from 14 hours prior to dosing until 24 hours after dosing. Meals were controlled by schedule and subjects remained abulatory for 4 hours post drug administration.
# Study Population. Subjects were healthy, non-institutionalized, non-smoking male volunteers between 19 and 50 years of age (inclusive) consisting of members of the community at large.
# Pharmacokinetic Sampling. Blood samples (10 mL each) were collected in blood collection tubes containing EDTA before dosing and at the following times thereafter: 0.25, 0.5, 0.75, 1, 1.5, 2, 3, 4, 5, 6, 8, 10, 12, 16 and 24 hours. Blood samples were cooled in an ice bath and centrifuged under refrigeration as soon as possible. Plasma samples were divided into two aliquots an dstored at […] pending assay. At the end of the study, all samples were transferred to MDS Pharma Services Analytical Laboratories (Lincoln) for analysis.
# Pharmacokinetic parameters were summarised by treatment group using descriptive statistics (arithmetic means, standard deviations, coefficients of variation, sample size, minimum, maximum and median). In addition, geometric means were calculated for AUC0-t, AUCinf and Cmax.
# [2] = Phase Ib twice daily oral dose study, pharmacokinetics; type: in vivo, healthy volunteers (human); conditions: for half-life: read-out: t½ (converted)
# Experimental: Study Design and Duration. […] Subjects were housed in the treatment facility from 14 hours prior to dosing until 24 hours after dosing. Meals were controlled by schedule and subjects remained abulatory for 4 hours post drug administration
# Pharmacokinetic Sampling. Blood samples (10 mL each) were collected in blood collection tubes containing EDTA before dosing and at the following times thereafter: 0.25, 0.5, 0.75, 1, 1.5, 2, 3, 4, 5, 6, 7, 8, 9, 10, 11 and 12 hours. Blood samples were cooled in an ice bath and centrifuged under refrigeration as soon as possible. Plasma samples were divided into two aliquots and stored at […] pending assay. At the end of the study, all samples were transferred to MDS Pharma Services Analytical Laboratories (Lincoln) for analysis.
# Pharmacokinetic parameters were summarised by treatment group using descriptive statistics (arithmetic means, standard deviations, coefficients of variation, sample size, minimum, maximum and median).
# GL-3 = experiment: Phase II study in Fabry patients, GL-3 levels (kidney, skin, urine, plasma); type: in vivo, Fabry patients (human)
# Experimental: Study Design. A two-arm design was planned. In one arm, eligible patients were given 150 mg of DGJ-HCl every other day for 12 weeks, with an extension up to 48 weeks. In the second arm, escalating doses of 25, 100, and then 250 mg b.i.d. over 6 weeks, followed by 50 mg/day for the remainder of the study.
# GL-3 deposits. Skin, kidney and heart biopsies will be performed at baseline, 3 months and six months and evaluated for GL-3 deposits in skin fibroblasts, cardiac myocytes, and various renal cells.
# GL-3 levels. […] Urine and plasma GL-3 levels at baseline and after treatment as assessed by liquid chromatography mass spectrometry were available for 10 patients. […] For the few patients that had elevated levels of GL-3 in urine or plasma at baseline, the results were difficult to interpret due to high intra-patient variability.
# Skin GL-3 levels at baseline and after treatment as assessed by light and electron microscopy are available for 10 patients.
# [3] = human, plasma, oral, 50 mg, 50 mg bid, Day 1
# [4] = human, plasma, oral, 50 mg, 50 mg bid, Day 7
# [5] = human, plasma, oral, 150 mg, 150 mg bid, Day 1
# [6] = human, plasma, oral, 150 mg, 150 mg bid, Day 7
smiles,measurement,setting,value
"OCC1NCC(O)C(O)C1O (centres unmarked) [DGJ, 1-deoxygalactonojirimycin]","time of peak concentrations, on average",[1]; all dose levels (25-675 mg single dose),approximately 3 hours
same,increase of AUC and Cmax with dose,[1]; doses increased from 25 mg to 225 mg,dose-proportional manner
same,half-life,"[1]; oral, 25-675 mg single dose, read-out: mean half-life across all dose levels",3 to 4.6 h
same,Tmax,[1]; single oral dose 25 mg,3 h
same,half-life,"[1]; single oral dose 25 mg, read-out: t1/2 (converted)",3.04 h
same,Tmax,[1]; single oral dose 75 mg,2.92 h
same,half-life,"[1]; single oral dose 75 mg, read-out: t1/2 (converted)",4.05 h
same,Tmax,[1]; single oral dose 225 mg,3.17 h
same,half-life,"[1]; single oral dose 225 mg, read-out: t1/2 (converted)",4.62 h
same,Tmax,[1]; single oral dose 675 mg,2.67 h
same,half-life,"[1]; single oral dose 675 mg, read-out: t1/2 (converted)",4.19 h
same,CL renal,"[1]; oral, as doses increased from 25 mg to 675 mg, read-out: mean renal clearance",98.3 to 128 mL/min
same,CL renal,"[1]; single oral dose 25 mg, read-out: CLR (converted)",98.3 mL/min
same,CL renal,"[1]; single oral dose 75 mg, read-out: CLR (converted)",95.5 mL/min
same,CL renal,"[1]; single oral dose 225 mg, read-out: CLR (converted)",126 mL/min
same,CL renal,"[1]; single oral dose 675 mg, read-out: CLR (converted)",128 mL/min
same,AUC(0-inf),[1]; single oral dose 25 mg,1130 ng·h/mL
same,AUC(0-t),[1]; single oral dose 25 mg,1090 ng·h/mL
same,Cmax,[1]; single oral dose 25 mg,201 ng/mL
same,AUC(0-inf),[1]; single oral dose 75 mg,4730 ng·h/mL
same,AUC(0-t),[1]; single oral dose 75 mg,4660 ng·h/mL
same,Cmax,[1]; single oral dose 75 mg,685 ng/mL
same,AUC(0-inf),[1]; single oral dose 225 mg,11400 ng·h/mL
same,AUC(0-t),[1]; single oral dose 225 mg,11200 ng·h/mL
same,Cmax,[1]; single oral dose 225 mg,2000 ng/mL
same,AUC(0-inf),[1]; single oral dose 675 mg,35700 ng·h/mL
same,AUC(0-t),[1]; single oral dose 675 mg,35300 ng·h/mL
same,Cmax,[1]; single oral dose 675 mg,6490 ng/mL
same,"Ae, cumulative percentage of DGJ excreted over the 12-hour postdose period",[1]; single oral dose 25 mg,8.78%
same,"Ae, cumulative percentage of DGJ excreted over the 12-hour postdose period",[1]; single oral dose 75 mg,23.4%
same,"Ae, cumulative percentage of DGJ excreted over the 12-hour postdose period",[1]; single oral dose 225 mg,40.3%
same,"Ae, cumulative percentage of DGJ excreted over the 12-hour postdose period",[1]; single oral dose 675 mg,39.6%
same,12 h cumulative renal excretion,"[2]; 50 mg bid, Day 1",16% and 16 ± 6%
same,12 h cumulative renal excretion,"[2]; 50 mg bid, Day 7",48% and 48 ± 7%
same,Cmin,"[2]; 50 mg bid, Day 7",0.4 ± 0.03 µM
same,12 h cumulative renal excretion,"[2]; 150 mg bid, Day 1",42% and 42 ± 7%
same,12 h cumulative renal excretion,"[2]; 150 mg bid, Day 7",60% and 60 ± 5%
same,Cmin,"[2]; 150 mg bid, Day 7",1.2 ± 0.1 µM
same,"time of peak concentrations, on average",[2]; all dose levels (50 and 150 mg b.i.d.),approximately 3 hours
same,increase of Cmax with dose,[2]; doses increased from 50 mg to 150 mg,dose-proportional manner
same,concentration at 7 day,"[2]; human, plasma, oral, 50 mg b.i.d., Day 7, read-out: Cmin",0.4 µM
same,Cmax,[2]; [3],2.3 ± 0.3 µM
same,Tmax,[2]; [3],2.9 ± 0.4 h
same,Cmax,[2]; [4],3.9 ± 0.5 µM
same,Tmax,[2]; [4],2.5 ± 0.4 h
same,Cmax,[2]; [5],11.3 ± 1.5 µM
same,Tmax,[2]; [5],3.1 ± 0.4 h
same,Cmax,[2]; [6],10.8 ± 1.4 µM
same,Tmax,[2]; [6],2.9 ± 0.4 h
same,half-life,"[2]; human, plasma, oral, 50 mg bid, Day 1",2.5 h
same,half-life,"[2]; human, plasma, oral, 150 mg bid, Day 1",2.4 h
same,"kidney GL-3 by electron microscopy, one patient","GL-3; 12 weeks of treatment, mesangial cells, glomerular endothelium, distal tubules",observed decrease in GL-3
same,"kidney GL-3 by electron microscopy, second patient","GL-3; 24 weeks of treatment, same kidney cell types, not independently conclusive (lower baseline GL-3)",showed a decrease of GL-3 levels
same,GL-3 in other kidney cell types including interstitial capillaries,GL-3; both patients,the decreases were not significant
same,urine and plasma GL-3 levels by liquid chromatography mass spectrometry,"GL-3; most of 10 patients, baseline and after treatment",normal or near normal both before and after treatment
same,skin GL-3 levels by light and electron microscopy,"GL-3; seven of 10 patients, baseline and after treatment",normal or near normal both before and after treatment

# Reference: patent US20100113517A1, “METHOD FOR THE TREATMENT OF FABRY DISEASE USING PHARMACOLOGICAL CHAPERONES” (AMICUS THERAPEUTICS, INC., priority 2007, published 2010)
